Legend:
[1] = tested on: P. falciparum female gametocytes; test: P. falciparum Dual Gamete Formation Assay (PfDGFA), female readout (Pfs25-positive female gametes); assay type: cell-based, Plasmodium falciparum NF54; details: for Average inhibition female (%): average of replicates; for % inhibition female (individual replicates) R1: replicate R1; for % inhibition female (individual replicates) R3: replicate R3; for % inhibition female (individual replicates) R4: replicate R4
Procedure, shortened: (§1)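 Male and female gamete formation were quantified by microscopy image analysis following 24 h incubation of mature NF54 gametocytes with compound and activation at 28°C with xanthurenic acid.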

[2] = tested on: P. falciparum male gametocytes; test: P. falciparum Dual Gamete Formation Assay (PfDGFA), male readout (exflagellation); assay type: cell-based, Plasmodium falciparum NF54; details: for Average inhibition male (%): average of replicates; for % inhibition male (individual replicates) R1: replicate R1; for % inhibition male (individual replicates) R3: replicate R3; for % inhibition male (individual replicates) R4: replicate R4; for Activity: hit = >50% inhibition in male or female readout in at least 3 replicates, 0 = no class assigned
Procedure, shortened: as §1

[3] = 2µM, 24h preincubation with gametocytes prior to induction of gametogenesis
[4] = 2µM, 24h preincubation, number of replicates with >50% inhibition in the female readout
[5] = 2µM, 24h preincubation, number of replicates with >50% inhibition in the male readout
[6] = 2µM, 24h preincubation, hits selected on >50% inhibition in the female readout across replicates
[7] = 2µM, 24h preincubation, hits selected on >50% inhibition in the male readout across replicates
[8] = PfDGFA at 2µM, 24h preincubation
[9] = PfDGFA at 2µM, 24h preincubation with gametocytes prior to induction of gametogenesis

SMILES	Average inhibition female (%) [1, 3] [%]	% inhibition female (individual replicates) R1 [1, 3] [%]	% inhibition female (individual replicates) R3 [1, 3] [%]	% inhibition female (individual replicates) R4 [1, 3] [%]	HitlevelF [1, 4]	Average inhibition male (%) [2, 3] [%]	% inhibition male (individual replicates) R1 [2, 3] [%]	% inhibition male (individual replicates) R3 [2, 3] [%]	% inhibition male (individual replicates) R4 [2, 3] [%]	HitlevelM [2, 5]	% inhibition female (individual replicates) R1 [1, 9] [%]	% inhibition female (individual replicates) R3 [1, 9] [%]	% inhibition female (individual replicates) R4 [1, 9] [%]	Average inhibition female (%) [1, 8] [%]	% inhibition male (individual replicates) R1 [2, 9] [%]	% inhibition male (individual replicates) R4 [2, 9] [%]	Average inhibition male (%) [2, 8] [%]	other results
CC(=O)Nc1ccc2[nH]cc(C3CCN(CC4CCC(NC(=O)/C=C/c5ccc(Cl)c(Cl)c5)CC4)CC3)c2n1 (centres unmarked) [TCMDC-140114]	33.1	26.2	29.8	41.8	0	48.3	53.7	39.7	57.6	2								
Nc1cc2c(C3CCN(CC4CCN(C(=O)/C=C/c5ccc(Cl)c(Cl)c5)CC4)CC3)c[nH]c2cn1 [TCMDC-140133]	13.5	13.3	3.5	10.0	0	52.8	50.4	47.4	52.9	3								
O=C(/C=C/c1c(Cl)cccc1Cl)NC1CCC(CN2CCC(c3c[nH]c4ccncc34)CC2)CC1 (centres unmarked) [TCMDC-140220]	10.7	11.8	11.4	18.8		43.5	44.6	17.7	42.9									HitlevelF [1, 6]: 0; HitlevelM [2, 7]: 1; Activity [2, 8]: 0
CN(C)CCCOc1ccccc1CN1CC[C@H](NC(=O)c2ccc(Cl)c(Cl)c2)C1.O=C(O)C(F)(F)F [TCMDC-140310]	10.5	10.3	9.3	14.4		6.1	4.0		4.7									HitlevelF [1, 6]: 0; HitlevelM [2, 7]: 0; Activity [2, 8]: 0
Cc1ccc2cc(NC(=O)CCCCCCCON3C(N)=NC(N)=NC34CCCCC4)ccc2n1.O=C(O)C(F)(F)F [TCMDC-140377]											7.6	-9.1	0.33	0.7	-16.0	-32.5	-24.7	% inhibition male (individual replicates) R3 [2, 9]: -37.7%
Cc1cc(CNCCCCCCNCc2ccc(-c3ccccc3)cc2)ccc1O [TCMDC-140412]											8.1	-7.2	4.6	1.3	6.5	7.3	9.5	
Cc1cc(CNCCCCCCCNCc2ccc(-c3ccccc3)cc2)ccc1O [TCMDC-140415]											15.4	-2.4	-10.0	3.6	37.4	70.9	52.6	% inhibition male (individual replicates) R3 [2, 9]: 30.2%
NCc1cccc(-c2ccccc2CNC2CCN(Cc3ccccc3)CC2)c1.O=C(O)C(F)(F)F [TCMDC-140467]	24.8	22.3	3.0	28.3	0	3.4	-0.12	-13.3	18.9	0								
